Legend:
[1] = system: Hepatoma 22 (H22) solid tumors; experiment: Inhibition of Hepatoma 22 (H22) solid tumors in mice, peptides with different number of copies; assay type: in vivo, Mus Musculus Balb/c female mice; settings: positive medicine, 20 mg/kg, intraperitoneal injection, 1 time/day, 5 days
[2] = system: Hepatoma 22 (H22) solid tumors; experiment: Inhibition of Hepatoma 22 (H22) solid tumors in mice, five-copy peptides; assay type: in vivo, Mus Musculus Balb/c female mice; settings: positive medicine, 20 mg/kg, intraperitoneal injection, 1 time/day, 5 days

For `O=c1[nH]cc(F)c(=O)[nH]1` [Peptide 5-FU, 5-fluorouracil], the “Tumor inhibition rate (%)” value [1] was 51.62%, the “Tumor weight” value [1] was 1.135 ± 0.248 g and the “Average tumor weight” value [2] was 1.135 ± 0.248 g. For the same compound, the “Tumor inhibition rate (%)” value [2] was 51.62%.
